This is an account of results in patent US10874739B2, “Near-IR light-cleavable conjugates and conjugate precursors” (The United States of America, as represented by the …, priority 2016, dated 2020).

One assay concerns MCF-7 (EGFR−). As to the kind of experiment: Near-IR light-dependent growth inhibition, MTT, pre-incubation assay (media exchanged prior to photolysis). The note with it: ±hν. It counts as cell-based, human. As for the experimental part: (§1) MDA-MB-468 (EGFR overexpression) and MCF-7 (normal EGFR expression) human breast cancer cell lines were obtained from the NCI DTP, DCTD Tumor Repository. MDA-MB-468 was cultured in RPMI supplemented with 2 mM L-glutamine, 11 mM D-glucose, 24 mM sodium bicarbonate, 10% heat-inactivated fetal bovine serum, 100 units/mL penicillin, 100 μg/mL streptomycin, and 0.25 μg/mL amphotericin B. MCF-7 was cultured in DMEM supplemented with 4 mM L-glutamine, 25 mM D-glucose, 44 mM sodium bicarbonate, 10% heat-inactivated fetal bovine serum, 100 units/mL penicillin, 100 μg/mL streptomycin, and 0.25 μg/mL amphotericin B. Both cell lines were grown at 37° C. in an atmosphere of 20% O2 and 5% CO2. Stock cultures were maintained in continuously exponential growth by weekly passage of the appropriate number of cells following trypsinization with 0.25% Trypsin-EDTA (0.9 mM) in PBS.
(§2) MDA-MB-468 or MCF-7 cells were seeded into 96-well plates (5×10^4 cells/well) and allowed to adhere overnight. […] Irradiation times may be calculated according to the following formula:
(§3) [formula] […] Media was removed, 100 μL of DMSO added to each well to solubilize MTT formazan, and absorbance at 550 nm was recorded using a microplate reader. Drug effects were expressed as % cell viability relative to the DMSO (no inhibitor) control. […]

The test system of the next assay is MDA-MB-468 (EGFR+). The description is as above. Format: cell-based, human. Conditions: ±hν. The method, then: as §1, §2, §3

In the case of `CN(C)CCOc1ccc2[nH]c(C(=O)N3C[C@@H](CCl)c4c3cc(O)c3ccccc43)cc2c1` [DuoDM, duocarmycin DM, reference compound], the values for the IC50 with MCF-7 (EGFR−) and in the assay on MDA-MB-468 (EGFR+) were 0.0133 ± 0.0011 nM and 0.007 ± 0.0006 nM, respectively.

As a reminder, the IC50 is the concentration that gives 50% inhibition. Read a low IC50 as greater potency.
